From PubChem BioAssay (NCI) come the findings set out here.

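Values below derive from 48-hour exposures of cells grown in 96-well plates, with endpoints linearly interpolated between the two concentrations bracketing the appropriate inhibition level. At the GI50, growth is halved. TGI marks complete inhibition of growth.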 Some results are limits rather than exact numbers.

Test systems include HS 578T breast; MOLT-4 leukemia; ACHN renal; NCI-H460 lung; TK-10 renal; OVCAR-3 ovarian; HT29 colon; IGROV1 ovarian.
Common to all, as to test: inhibition of tumour cell growth, NCI panel, 48 h

With `O=C1NC(=O)C(=C/C=C/c2ccccc2)C(=O)N1`, the GI50 was 4.81 µM in the test with HS 578T breast; 4.12 µM in the test on MOLT-4 leukemia; 2.32 µM in the test on ACHN renal; 2.78 µM with NCI-H460 lung; 5.62 µM with TK-10 renal; 1.53 µM in the test with OVCAR-3 ovarian. The TGI in the test on HS 578T breast is 50.4 µM; in the test on MOLT-4 leukemia it was 25.1 µM; with ACHN renal it was 5.65 µM; in the test with NCI-H460 lung it was 7.31 µM; with TK-10 renal it was 18.3 µM; in the test with OVCAR-3 ovarian, 3.97 µM.

`CN(C)c1ccc(N=C2C=CC(=[N+](C)C)C=C2)cc1`: the GI50 was 3.28 µM with HS 578T breast; 3.74 µM in the test on HT29 colon; 12.2 µM in the test with ACHN renal; 5.36 µM in the test with NCI-H460 lung; 9.24 µM in the test with TK-10 renal; 4.99 µM in the test on OVCAR-3 ovarian. In addition, in the test with IGROV1 ovarian, the GI50 was 5.35 µM. The TGI amounted to 29.1 µM in the test on HS 578T breast; 22.9 µM in the test on HT29 colon; 37.5 µM in the test on ACHN renal; 43.7 µM in the test with NCI-H460 lung; 53.4 µM with TK-10 renal; 17.7 µM in the test with OVCAR-3 ovarian. The same compound registered a TGI in the test with IGROV1 ovarian of 37.8 µM.

Turning to `O=C(O)c1cc(/C=C/c2cc(O)ccc2O)ccc1O`, the TGI in the test with HS 578T breast, in the test with MOLT-4 leukemia, in the test on HT29 colon, with ACHN renal, in the test on NCI-H460 lung and in the test with TK-10 renal was over 10 µM each time. Besides, in the test with OVCAR-3 ovarian, the TGI was over 10 µM.

Consider `N/N=C(\C(=O)Nc1ccc(Cl)cc1Cl)C(c1cnc2ccccc2n1)[N+](=O)[O-]` (stereo unspecified), for which the TGI in the test on HS 578T breast, in the test on HT29 colon, in the test on ACHN renal, in the test with NCI-H460 lung, in the test on TK-10 renal and with OVCAR-3 ovarian was over 100 µM throughout. In the test with IGROV1 ovarian, this compound gave a TGI of over 100 µM.

For the compound `C=C(C)[C@@H]1CC[C@]2(C(=O)O)CC[C@]3(C)[C@H](CC[C@@H]4[C@@]5(C)C[C@@H](CC#Cc6ccc(C(F)(F)F)cc6)[C@H](O)C(C)(C)[C@@H]5CC[C@]43C)[C@@H]12`, the GI50 in the test on HS 578T breast was 3.88 µM; with MOLT-4 leukemia, 2.75 µM; with HT29 colon, 3.01 µM; in the test on ACHN renal, 4.04 µM; with NCI-H460 lung, 3.38 µM; in the test on TK-10 renal it was 6.11 µM. Also, in the test on IGROV1 ovarian, the GI50 is 3.56 µM. Besides, the TGI in the test with HS 578T breast, in the test with MOLT-4 leukemia, with HT29 colon, in the test with ACHN renal, in the test on NCI-H460 lung and in the test with TK-10 renal was over 100 µM in each case. In the test on IGROV1 ovarian, this compound yielded a TGI of over 100 µM.

Regarding `COc1ccc(C(=O)c2cc(OC)c(OC)c(OC)c2)cc1/C=C/C(=O)c1ccc(OC)c(OC)c1`, the GI50 was 11.1 µM with HS 578T breast; 0.669 µM in the test with MOLT-4 leukemia; 1.32 µM in the test on ACHN renal; 2.43 µM with NCI-H460 lung; 4.16 µM with TK-10 renal; 3.08 µM in the test with IGROV1 ovarian. Further, the TGI was over 100 µM in the test on HS 578T breast; 17.4 µM in the test with MOLT-4 leukemia; over 100 µM in the test with ACHN renal; over 100 µM in the test with NCI-H460 lung; over 100 µM in the test on TK-10 renal; over 100 µM in the test with IGROV1 ovarian.

For the compound `O=C1c2nsnc2C(=O)c2c(F)c(F)c(F)c(F)c21`, the GI50 in the test with HS 578T breast was 0.342 µM; in the test on MOLT-4 leukemia, 0.298 µM; with HT29 colon, 0.266 µM; in the test on ACHN renal it was 0.501 µM; in the test on NCI-H460 lung, 0.758 µM; in the test with TK-10 renal, 0.71 µM. The GI50 in the test with IGROV1 ovarian is 1.52 µM. For the same compound, the TGI with HS 578T breast was determined as 1.96 µM; in the test on MOLT-4 leukemia, 1.44 µM; in the test with HT29 colon, 0.715 µM; in the test with ACHN renal, 1.2 µM; in the test on NCI-H460 lung it was 2.34 µM; in the test with TK-10 renal, 1.92 µM. The compound also displayed a TGI in the test on IGROV1 ovarian of 5.07 µM.

Take `CC1COc2c(N3CCN(C)CC3)c(F)cc3c(=O)c(C(=O)O)cn1c23` (stereo unspecified): the GI50 in the test with HS 578T breast, with HT29 colon, in the test with ACHN renal, with NCI-H460 lung, with TK-10 renal and in the test on OVCAR-3 ovarian was over 100 µM throughout. The GI50 with IGROV1 ovarian was over 100 µM. Further, the TGI in the test on HS 578T breast, in the test on HT29 colon, with ACHN renal, in the test with NCI-H460 lung, with TK-10 renal and in the test with OVCAR-3 ovarian was over 100 µM in each case. In the test on IGROV1 ovarian, this compound showed a TGI of over 100 µM.

Turning to `Cc1ccc(-c2cc3c(SCC(=O)Nc4cc(C(F)(F)F)ccc4Cl)nccn3n2)cc1`, the GI50 in the test on HS 578T breast was 11.7 µM; with MOLT-4 leukemia, over 100 µM; in the test with ACHN renal, 6.17 µM; in the test with NCI-H460 lung, 81.6 µM; with TK-10 renal, over 100 µM; in the test on OVCAR-3 ovarian, over 100 µM. Further, in the test on IGROV1 ovarian, the GI50 is over 100 µM. Further, the TGI with HS 578T breast, with MOLT-4 leukemia, in the test with ACHN renal, with NCI-H460 lung, with TK-10 renal and with OVCAR-3 ovarian was over 100 µM in each case. The TGI in the test on IGROV1 ovarian was over 100 µM.

Turning to `C/C(=C\CCc1ccoc1)CC/C=C(\C)CCCN1CCOCC1`, the GI50 was 4.07 µM in the test with HS 578T breast; 4.2 µM in the test on MOLT-4 leukemia; 8.24 µM in the test with ACHN renal; 4.79 µM in the test with NCI-H460 lung; 11 µM with TK-10 renal; 3.73 µM in the test on OVCAR-3 ovarian. For the same compound, the GI50 in the test on IGROV1 ovarian is 15.4 µM. Besides, the TGI in the test with HS 578T breast came to 24.7 µM; with MOLT-4 leukemia, 16.9 µM; with ACHN renal, 24.1 µM; in the test with NCI-H460 lung, 17.8 µM; in the test on TK-10 renal, 23.8 µM; in the test on OVCAR-3 ovarian, 15.3 µM. For the same compound, in the test on IGROV1 ovarian, the TGI came to 36.8 µM.

As for `NC(N)=N/N=C/c1c(-c2cc(Cl)sc2Cl)nc2sccn12`, the GI50 in the test on HS 578T breast is 0.89 µM; in the test on MOLT-4 leukemia, 0.912 µM; in the test on ACHN renal, 0.703 µM; in the test with NCI-H460 lung it was 1.43 µM; in the test on TK-10 renal it was 1.29 µM; in the test on OVCAR-3 ovarian, 1.27 µM. Further, the GI50 in the test with IGROV1 ovarian is 1.14 µM. Besides, the TGI in the test on HS 578T breast was 2.77 µM; in the test on MOLT-4 leukemia, 1.91 µM; in the test with ACHN renal, 1.41 µM; with NCI-H460 lung, 4.4 µM; in the test on TK-10 renal it was 2.78 µM; with OVCAR-3 ovarian it was 3.4 µM. The TGI in the test with IGROV1 ovarian is 8.08 µM.

Turning to `COc1ccc2c(c1)[nH]c(=O)c1c3cc(OC)ccc3cn21`, the GI50 in the test on MOLT-4 leukemia is under 0.0145 µM; with HT29 colon, under 0.0143 µM; with ACHN renal it was 0.0199 µM; with NCI-H460 lung it was 0.0282 µM; in the test on TK-10 renal, 0.374 µM; with OVCAR-3 ovarian, under 0.01 µM. Further, the GI50 in the test on IGROV1 ovarian was 0.0157 µM. The TGI in the test with MOLT-4 leukemia is 0.788 µM; with HT29 colon, 0.28 µM; with ACHN renal it was 1.55 µM; in the test with NCI-H460 lung it was 0.363 µM; with TK-10 renal, 1.79 µM; with OVCAR-3 ovarian it was 0.0204 µM. The same compound registered a TGI with IGROV1 ovarian of 1.18 µM.

In the case of `COC(=O)C(=O)C(C(=O)C(=O)Nc1nc2ccc(C)cc2s1)c1nc2ccc([N+](=O)[O-])cc2[nH]c1=O` (stereo unspecified), the TGI in the test with HS 578T breast, in the test with HT29 colon, in the test with ACHN renal, with NCI-H460 lung, with TK-10 renal and with OVCAR-3 ovarian was over 100 µM each time. The same compound showed a TGI with IGROV1 ovarian of over 100 µM.

Take `O=C1c2ccccc2S(=O)(=O)N1CSC(=S)N1CCCCC1`: the GI50 was over 100 µM in the test on HS 578T breast; over 29.2 µM in the test on HT29 colon; over 100 µM with ACHN renal; 5.5 µM with NCI-H460 lung; over 100 µM in the test on TK-10 renal; over 100 µM with OVCAR-3 ovarian. In addition, the GI50 in the test with IGROV1 ovarian is over 89 µM. Besides, the TGI in the test with HS 578T breast, with HT29 colon, in the test on ACHN renal, in the test with NCI-H460 lung, in the test on TK-10 renal and in the test on OVCAR-3 ovarian was over 100 µM in each case. The compound further returned a TGI in the test on IGROV1 ovarian of over 100 µM.

On to `N#Cc1ccccc1NC(=O)C(=O)c1c(O)c2ccccc2oc1=O`, for which the TGI with HS 578T breast, in the test on HT29 colon, in the test with ACHN renal, with NCI-H460 lung, in the test on TK-10 renal and in the test with OVCAR-3 ovarian was over 100 µM in each case. The compound also gave a TGI in the test with IGROV1 ovarian of over 100 µM.

Consider `COc1ccc2c(CN3CCC(C(=O)O)CC3)cc3cc4c(cc3c2c1)OCO4`, for which the GI50 in the test on HS 578T breast is 3.97 µM; with MOLT-4 leukemia it was 3.05 µM; in the test with HT29 colon it was 2.33 µM; in the test on ACHN renal it was 1.41 µM; in the test on NCI-H460 lung it was 2.97 µM; with TK-10 renal, 3.23 µM. Moreover, the GI50 in the test with OVCAR-3 ovarian was 2.85 µM. The TGI in the test with HS 578T breast is 25.8 µM; in the test on MOLT-4 leukemia it was 9.73 µM; with HT29 colon, 13.8 µM; in the test with ACHN renal it was 5.45 µM; in the test with NCI-H460 lung, 16.1 µM; in the test with TK-10 renal, 25 µM. Further, the TGI with OVCAR-3 ovarian worked out at 9.64 µM.

With `CCN1C(=O)N(CC)C2Nn3c(s/c(=C\c4ccccc4Br)c3=O)=NC21` (stereo unspecified), the GI50 was 2.28 µM in the test with MOLT-4 leukemia; 0.558 µM in the test on HT29 colon; 1.33 µM in the test on ACHN renal; 0.804 µM with NCI-H460 lung; 9.34 µM in the test on TK-10 renal; 1.05 µM in the test on OVCAR-3 ovarian. Further, the GI50 in the test with IGROV1 ovarian is 2.77 µM. Moreover, the TGI is 23.2 µM in the test with MOLT-4 leukemia; 5.73 µM with HT29 colon; over 100 µM in the test on ACHN renal; 10.5 µM in the test on NCI-H460 lung; over 100 µM with TK-10 renal; 5.02 µM with OVCAR-3 ovarian. In the test with IGROV1 ovarian, this compound came in with a TGI of over 100 µM.
